Test results: ChEMBL document CHEMBL2203228, “Structural modifications of a 3-methoxy-2-aminopyridine compound to reduce potential for mutagenicity and time-dependent drug-drug interaction” (Bioorg Med Chem Lett, 2012)
≈ marks a conversion by molar mass, not a printed value.

Columns and labels:
[1] = tested on: Salmonella typhimurium; test: Mutagenic activity in Salmonella typhimurium assessed as fold increase in colony forming units by Bioluminescent Ames assay relative to control; format: toxicity, organism-based; conditions: salmonella enterica subsp. enterica serovar typhimurium
[2] = molecular target: T1, Cytochrome P450 3A4 (Homo sapiens, UniProt P08684); test: Time dependent inhibition of human liver microsome CYP3A4 assessed as change in midazolam metabolism at 60 uM by two-step reaction; format: ADME; set-up: scale not given: the % may be the effect or the level left; conditions: microsomes
T1 sequence (P08684 whole entry): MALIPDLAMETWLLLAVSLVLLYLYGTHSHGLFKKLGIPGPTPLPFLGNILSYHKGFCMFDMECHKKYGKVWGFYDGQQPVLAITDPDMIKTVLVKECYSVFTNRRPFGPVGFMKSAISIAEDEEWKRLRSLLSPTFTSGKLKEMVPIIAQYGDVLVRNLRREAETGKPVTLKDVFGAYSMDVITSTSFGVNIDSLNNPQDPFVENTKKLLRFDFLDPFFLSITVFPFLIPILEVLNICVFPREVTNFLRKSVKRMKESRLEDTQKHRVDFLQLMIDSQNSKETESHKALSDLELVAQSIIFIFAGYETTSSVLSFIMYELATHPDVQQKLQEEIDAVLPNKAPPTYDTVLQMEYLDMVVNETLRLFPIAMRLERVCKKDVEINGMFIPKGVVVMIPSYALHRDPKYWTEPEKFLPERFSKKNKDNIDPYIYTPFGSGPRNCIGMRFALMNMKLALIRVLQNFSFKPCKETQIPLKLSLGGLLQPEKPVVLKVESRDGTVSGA

[3] = Solubility of the compound; format: physicochemical
[4] = molecular target: T1, Cytochrome P450 3A4; test: Time dependent inhibition of CYP3A4; format: ADME; conditions: TDE = time-dependent effect
[5] = Oral bioavailability in rat; format: ADME, organism-based; conditions: in vivo
[6] = Half life in rat; format: ADME, organism-based; conditions: in vivo
[7] = Clearance in rat; format: ADME, organism-based; conditions: in vivo
[8] = molecular target: Serine/threonine-protein kinase B-raf (Homo sapiens, UniProt P15056, V600E); test: Inhibition of B-Raf V600E mutant -mediated MEK phosphorylation
Sequence of Serine/threonine-protein kinase B-raf (P15056 2-766 V600E limits assumed): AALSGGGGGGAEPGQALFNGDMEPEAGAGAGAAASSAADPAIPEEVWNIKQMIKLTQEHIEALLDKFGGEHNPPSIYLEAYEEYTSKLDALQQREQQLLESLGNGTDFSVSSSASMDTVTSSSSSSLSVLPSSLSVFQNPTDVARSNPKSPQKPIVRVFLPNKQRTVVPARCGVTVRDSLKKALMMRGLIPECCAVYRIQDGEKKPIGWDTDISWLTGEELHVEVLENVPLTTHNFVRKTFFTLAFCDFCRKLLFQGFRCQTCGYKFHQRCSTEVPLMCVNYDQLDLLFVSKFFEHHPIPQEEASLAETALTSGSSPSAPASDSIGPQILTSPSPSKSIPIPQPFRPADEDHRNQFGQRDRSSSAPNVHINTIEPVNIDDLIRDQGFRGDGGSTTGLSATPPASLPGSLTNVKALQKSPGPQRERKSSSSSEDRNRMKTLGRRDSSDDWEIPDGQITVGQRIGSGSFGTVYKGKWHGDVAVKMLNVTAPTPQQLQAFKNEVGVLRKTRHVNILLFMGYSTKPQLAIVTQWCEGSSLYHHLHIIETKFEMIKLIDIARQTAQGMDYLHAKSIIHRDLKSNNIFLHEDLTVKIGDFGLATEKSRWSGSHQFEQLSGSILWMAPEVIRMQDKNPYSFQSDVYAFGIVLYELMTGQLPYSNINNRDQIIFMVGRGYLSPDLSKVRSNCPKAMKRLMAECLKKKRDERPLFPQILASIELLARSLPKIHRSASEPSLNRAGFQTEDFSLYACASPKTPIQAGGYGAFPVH

SMILES | Activity [2] [%] | fold change (FC) [1] | other results
CC(=O)c1cc(-c2nn(C(C)C)cc2-c2ccnc(NC[C@H](C)O)n2)cnc1N | < 30 | < 2 | 
CC(C)n1cc(-c2ccnc(NC[C@H](C)O)n2)c(-c2cnc3[nH]ncc3c2)n1 | < 30 | < 2 | 
CC(C)n1cc(-c2ccnc(NC[C@H](C)O)n2)c(-c2cnc3[nH]ccc3c2)n1 | 11 | < 2 | 
COc1cc(-c2nn(C(C)C)cc2-c2ccnc(NC[C@H](C)O)n2)cnc1N | 13 | 4 | solubility [3]: 503 µM (≈ 193 µg/mL); Activity [1]: Non-toxic; inhibition (INH) [4]: tde; bioavailability [5]: 43%; half-life [6]: 4.43 h; clearance [7]: 56.3 mL/min/kg; IC50 [8]: 6.5 nM
COc1cc(-c2nn(C(C)C)cc2-c2ccnc(NC[C@H](C)O)n2)c(C)nc1N |  |  | Activity [1]: Toxic

Second part, led by results:

Activity [2] [%] | SMILES | fold change (FC) [1] | other results
< 30 | COc1cncc(-c2nn(C(C)C)cc2-c2ccnc(NC[C@H](C)O)n2)c1 | < 2 | 
11 | Cc1c[nH]c2ncc(-c3nn(C(C)C)cc3-c3ccnc(NC[C@H](C)O)n3)cc12 | < 2 | 
11 | CC(C)n1cc(-c2ccnc(NC[C@H](C)O)n2)c(-c2cnc3[nH]cc(Cl)c3c2)n1 | < 2 | 
30 | COc1nc(-c2nn(C(C)C)cc2-c2ccnc(NC[C@H](C)O)n2)cnc1N | 4 | 
